Reference: patent US20240082282A1 (priority 2020, published 2024)
In brackets after ≈: the same amount, converted by molar mass. Read-outs that look alike come from different tables or passages of the source.

Key:
[1] = system: Borreliella burgdorferi 297; conditions: for MIC: Borreliella burgdorferi, 297, read-out: Minimum inhibitory concentration (MIC)
[2] = system: Parabacteroides merdae KLE 2238; format: cell-based; conditions: Parabacteroides merdae KLE 2238, anaerobic, stool isolate; for MIC: KLE2238, read-out: Minimum inhibitory concentration (MIC)
[3] = system: Fusobacterium nucleatum KLE 2428; format: cell-based; conditions: Fusobacterium nucleatum KLE 2428, anaerobic, stool isolate; for MIC: KLE2428, read-out: Minimum inhibitory concentration (MIC)
[4] = system: Bacteroides nordii KLE 2369; format: cell-based; conditions: Bacteroides nordii KLE 2369, anaerobic, stool isolate; for MIC: KLE2369, read-out: Minimum inhibitory concentration (MIC)
Borreliella miyamotoi = conditions: for MIC: Borreliella, read-out: Minimum inhibitory concentration (MIC)
[5] = system: Streptococcus salivarius KLE 2370; format: cell-based; conditions: Streptococcus salivarius KLE 2370, anaerobic, stool isolate; for MIC: KLE2370, read-out: Minimum inhibitory concentration (MIC)
[6] = system: Enterococcus faecalis KLE 2341; format: cell-based
[7] = system: Staphylococcus aureus HG003; format: cell-based
[8] = system: Borreliella burgdorferi N40; conditions: for MIC: Borreliella burgdorferi, N40, read-out: Minimum inhibitory concentration (MIC)
[9] = system: Clostridium tertium KLE 2303; format: cell-based; conditions: Clostridium tertium KLE 2303, anaerobic, stool isolate; for MIC: KLE2303, read-out: Minimum inhibitory concentration (MIC)
[10] = system: Bacteroides eggerthii KLE 2382; format: cell-based; conditions: Bacteroides eggerthii KLE 2382, anaerobic, stool isolate; for MIC: KLE2382, read-out: Minimum inhibitory concentration (MIC)
[11] = system: B. burgdorferi overexpressing bmpD (Bb1286+pJSB275m_bmpD); assay: MIC of B. burgdorferi overexpressing bmpD; format: cell-based; conditions: for Change of MIC on overexpression of bmpD in B. burgdorferi: normalized to wild-type B. burgdorferi, IPTG-independent
B. burgdorferi N40 = assay: Bait experiment in infected mice; format: in vivo, C3H mice; conditions: for B. burgdorferi culture (% positive) / Mean # of B. burgdorferi/10 mg of skin tissue (qPCR): bait once a day for 5 days; for Culture positive (%): C3H, bait, 5 days, whole ear culture
Method: Mice were infected with B. burgdorferi.
To prepare the mouse bait, 2 g of Bait formulation 3 (Food source), 0.5 g freshly ground peanut butter (Whole foods), 35 μl of green food coloring mix (Whole foods) were added into a 60 mm Petri dish. Boiling water (4 mL) was added and mixed with a spatula. The mixture was then dispensed into wells of a 96 well plate with a spatula such that about ⅔rd of the well was full. Antibiotics or vehicle were added at appropriate volume and mixed with a pipette tip. Added volume was kept below 60 μL per well. The bait was allowed to air dry/solidify for a few hours and the prepared baits were stored at 4° C. until use.
To ensure that the bait would be consumed, mice were housed individually with their mouse chow withheld during treatment. The doses used in mice were matched to the pharmacokinetic profile of humans given ceftriaxone 1 g every 12 hours (Sai Life Sciences Ltd, India) and doxycycline 100 mg every 12 hours.
Skin was used for liquid culture, and RNA extraction. All other tissues were used for RNA extraction. The growth of B. burgdorferi in 10 day liquid cultures was detected by dark field microscopy with a 100× objective.

[12] = system: E. coli ΔTolC+pBAD30 bmpD; assay: MIC of E. coli overexpressing bmpD; conditions: arabinose induced
E. coli WT BW25113 = assay: MIC of E. coli mutant strains
[13] = system: Alkalispirochaeta americana DSM 14872
FaDu = conditions: alamar blue, 72 hours
[14] = system: Leptospira interrogans ATCC BAA-1198
[15] = system: Brachyspira (formerly Treponema) hyodysenteriae; conditions: report of a group from Japan; cited from earlier work
[16] = system: Borrelia burgdorferi (B31, N40, 297); format: cell-based
[17] = system: E. coli WT-Pore (hyperporinated); assay: MIC of E. coli mutant strains
[18] = system: Brachyspira (formerly Treponema) hyodysenteriae; conditions: report of a group from Japan; cited from earlier work; remark: listed apart in the source
HepG2 = conditions: HepG2, alamar blue, 72 hours
B. burgdorferi = assay: Efficacy of hygromycin A in Peromyscus mice; format: in vivo; conditions: Peromyscus leucopus, subcutaneous, twice a day, 5 days
Source text: Mice were sacrificed on Day 11 and the heart, ankle, and ear were taken for culture. Cultures were monitored by darkfield microscopy for 4 weeks or until positive.

E. coli ribosomes = assay: Toeprinting / in vitro translation, affinity to ribosome; format: biochemical
[19] = KLE2341, Enterococcus faecalis KLE 2341, anaerobic, stool isolate, read-out: Minimum inhibitory concentration (MIC)
[20] = Borreliella bavariensis, read-out: Minimum inhibitory concentration (MIC)
[21] = Staphylococcus aureus HG003, read-out: Minimum inhibitory concentration (MIC)

## CC1(C)S[C@@H]2[C@H](NC(=O)[C@H](N)c3ccc(O)cc3)C(=O)N2[C@H]1C(=O)O [Amoxicillin]
[1]
  MIC: 0.25 µg/mL (≈ 0.684 µM)
[2]
  MIC: 1 µg/mL (≈ 2.74 µM)
[3]
  MIC: 2 µg/mL (≈ 5.47 µM)
[4]
  MIC: 32 µg/mL (≈ 87.6 µM)
Borreliella miyamotoi
  MIC: 0.12 µg/mL (≈ 0.328 µM)
[5]
  MIC: 0.06 µg/mL (≈ 0.164 µM)
[6]; [19]
  MIC: 0.5 µg/mL (≈ 1.37 µM)
Borrelia bavariensis; [20]
  MIC: 0.06 µg/mL (≈ 0.164 µM)
[7]; [21]
  MIC: 1 µg/mL (≈ 2.74 µM)
[8]
  MIC: 0.12 µg/mL (≈ 0.328 µM)
[9]
  MIC: 32 µg/mL (≈ 87.6 µM)
[10]
  MIC: 0.5 µg/mL (≈ 1.37 µM)

## CO/N=C(\C(=O)N[C@@H]1C(=O)N2C(C(=O)O)=C(CSc3nc(=O)c(=O)[nH]n3C)CS[C@H]12)c1csc(N)n1 [Ceftriaxone]
[1]
  MIC: 0.01 µg/mL (≈ 0.018 µM)
[2]
  MIC: 0.25 µg/mL (≈ 0.451 µM)
[3]
  MIC: 0.5 µg/mL (≈ 0.902 µM)
[4]
  MIC: 1 µg/mL (≈ 1.8 µM)
Borreliella miyamotoi
  MIC: 0.01 µg/mL (≈ 0.018 µM)
[5]
  MIC: 0.03 µg/mL (≈ 0.0541 µM)
[6]; [19]
  MIC: > 128 µg/mL
Borrelia bavariensis; [20]
  MIC: 0.01 µg/mL (≈ 0.018 µM)
[7]; [21]
  MIC: 8 µg/mL (≈ 14.4 µM)
[8]
  MIC: 0.01 µg/mL (≈ 0.018 µM)
[9]
  MIC: 1 µg/mL (≈ 1.8 µM)
[11]
  Change of MIC on overexpression of bmpD in B. burgdorferi: no effect
[11]; listed as ceftriaxone
  Change of MIC on overexpression of bmpD in B. burgdorferi: remained unchanged

## C[C@H]1c2cccc(O)c2C(=O)C2=C(O)[C@]3(O)C(=O)C(C(N)=O)=C(O)[C@@H](N(C)C)[C@@H]3[C@@H](O)[C@@H]21 [Doxycycline]
[1]
  MIC: 0.25 µg/mL (≈ 0.563 µM)
[2]
  MIC: 0.06 µg/mL (≈ 0.135 µM)
[3]
  MIC: 0.12 µg/mL (≈ 0.27 µM)
[4]
  MIC: 0.25 µg/mL (≈ 0.563 µM)
Borreliella miyamotoi
  MIC: 0.12 µg/mL (≈ 0.27 µM)
[5]
  MIC: 0.12 µg/mL (≈ 0.27 µM)
[6]; [19]
  MIC: 0.5 µg/mL (≈ 1.13 µM)
Borrelia bavariensis; [20]
  MIC: 0.12 µg/mL (≈ 0.27 µM)
B. burgdorferi N40; 100 mg/kg
  B. burgdorferi culture (% positive): 0%
  Mean # of B. burgdorferi/10 mg of skin tissue (qPCR): <1 B. burgdorferi/10 mg of skin t
B. burgdorferi N40; daily dose 200 mg/kg/day
  Culture positive (%): 0%
[7]; [21]
  MIC: 0.12 µg/mL (≈ 0.27 µM)
[8]
  MIC: 0.25 µg/mL (≈ 0.563 µM)
[9]
  MIC: 0.03 µg/mL (≈ 0.0675 µM)
[10]
  MIC: 0.01 µg/mL (≈ 0.0225 µM)

## Hygromycin A
[12]
  Reduction of E. coli MIC on inducing expression of BmpD: 8 fold
[1]; Borreliella burgdorferi 297, microaerophilic
  Minimum inhibitory concentration (MIC): 0.25 µg/mL
E. coli WT BW25113
  MIC: 512 µg/mL
[2]
  Minimum inhibitory concentration (MIC): 16 µg/mL
[3]
  Minimum inhibitory concentration (MIC): 1 µg/mL
[13]; Alkalispirochaeta americana
  MIC: 0.5 µg
[13]; Alkalispirochaeta americana DSM 14872, anaerobic
  Minimum inhibitory concentration (MIC): 0.5 µg/mL
FaDu
  IC50: >512 µg/mL
[14]
  Minimum inhibitory concentration (MIC): 4 µg/mL
[15]
  Activity against Brachyspira hyodysenteriae: good activity
[4]
  Minimum inhibitory concentration (MIC): 8 µg/mL
Borreliella miyamotoi; Borreliella miyamotoi, microaerophilic
  Minimum inhibitory concentration (MIC): 0.25 µg/mL
[5]
  Minimum inhibitory concentration (MIC): 2 µg/mL
[6]; Enterococcus faecalis
  MIC: >128 µg
[6]; Enterococcus faecalis KLE 2341, anaerobic, stool isolate
  Minimum inhibitory concentration (MIC): >128 µg/mL
[16]; B. burgdorferi
  MIC: 0.25 µg/mL
[16]; Borrelia burgdorferi (B31, N40, 297)
  MIC: 0.25 µg
[16]; wild type B. burgdorferi (FIG. 7B)
  MIC: 0.25 µg/mL
Borrelia bavariensis; B. bavariensis
  MIC: 0.25 µg/mL
Borrelia bavariensis; Borrelia bavariensis
  MIC: 0.25 µg
Borrelia bavariensis; Borreliella bavariensis, microaerophilic
  Minimum inhibitory concentration (MIC): 0.25 µg/mL
[17]
  MIC: 512 µg/mL
B. burgdorferi N40; 200 mg/kg
  B. burgdorferi culture (% positive): 0%
  Mean # of B. burgdorferi/10 mg of skin tissue (qPCR): <1 B. burgdorferi/10 mg of skin t
B. burgdorferi N40; daily dose 100 mg/kg/day
  Culture positive (%): 0%
B. burgdorferi N40; baits, FIG. 10
  Clearance of B. burgdorferi infection by consuming baits: efficiently cleared
[18]
  Treatment of pig dysentery: showed efficacy
[7]; S. aureus used in the counter-screen vs B. burgdorferi
  Activity against S. aureus, times lower compared to B. burgdorferi: 64 times
[7]; Staphylococcus aureus
  MIC: 8 µg
[7]; Staphylococcus aureus HG003
  Minimum inhibitory concentration (MIC): 8 µg/mL
HepG2
  IC50: >512 µg/mL
500 mg/kg vs minimal efficacious dose
  Maximal non-toxic dose tested relative to minimal efficacious dose: 10 fold
C3H mice, 500 mg/kg, preliminary data
  Toxicity at maximal dose tested: absence of toxicity
Any of the doses used in the efficacy experiments (IP, gavage, bait)
  Signs of toxicity: no signs of toxicity
Even at very high doses
  Indications of toxicity: no indications of toxicity
Preliminary testing
  Biosafety window: > 500 mg/kg
[8]; Borreliella burgdorferi N40, microaerophilic
  Minimum inhibitory concentration (MIC): 0.25 µg/mL
B. burgdorferi; total daily dose 100 mg/kg/day
  Culture positive (%): 100%
B. burgdorferi; total daily dose 200 mg/kg/day
  Culture positive (%): 0%
E. coli ribosomes; E. coli ribosomes, inferred from in vitro translation arrest, read-out: Kd of binding to the ribosome
  Kd: < 10 nM
E. coli ribosomes; lowest concentration tested, 0.6 μM
  Arrest of in vitro translation of model ORFs: complete arrest of translation
[9]
  Minimum inhibitory concentration (MIC): 8 µg/mL
[10]
  Minimum inhibitory concentration (MIC): 64 µg/mL
Escherichia coli Nissle
  MIC: >128 µg
[11]; BmpD overexpressing B. burgdorferi (FIG. 7B)
  MIC: 0.0625 µg/mL
[11]
  Change of MIC on overexpression of bmpD in B. burgdorferi: four-fold reduction
